Data from patent US20250136722A1, “CYTOTOXICITY TARGETING CHIMERAS” (GLAXOSMITHKLINE INTELLECTUAL PROPERTY DEVELOPMENT LIMITED, priority 2021, published 2025).
Where “and” joins values, the source holds several entries; their conditions need not be identical. Identical values can stand only once.

What was measured:
[1] = system: endogenous target monocytes in human PBMC; assay: PBMC ex vivo monocyte depletion flow cytometry assay (Example 200); format: cell-based; details: with anti-cotinine antibody SEQ ID NO: 11/12, 18-24 hours, read-out: Ex Vivo Depletion Assay pEC50 (converted)
Description: A human PBMC (peripheral blood mononuclear cells) monocyte depletion flow cytometry assay was developed to screen compounds in a 384-well plate format. This assay incorporated endogenous natural killer cells to deplete endogenous target monocytes.
To screen compounds in the human PBMC monocyte depletion flow cytometry assay, 11-point dose-response curves were made from 1 mM stocks in neat DMSO by serially diluting an ARM compound of Formula (I) four-fold into a 384-well plate row-wise. These serially diluted compounds were then stamped into a flat bottom polypropylene 384-well plate (Greiner Bio-One) at 100 nL/well. Fifty microliters of 30 μg/mL anti-cotinine antibody having a heavy chain sequence of SEQ ID NO: 11 and a light chain sequence of SEQ ID NO: 12 (rabbit variable region with human IgG1 Fc domain containing a DE mutation (S239D/1332E)) that had been diluted in assay medium (RPMI 1640 (Gibco) containing 10% fetal bovine serum (Gibco), 1% Glutamax (Gibco) and 1% sodium pyruvate (Corning) was added to the wells of the plate. The plate was centrifuged for 1 min at 500 rpm (revolutions per minute) and then shaken for 5 min at room temperature. The plate was incubated for 15 minutes at 37° C./5% CO2.
Frozen PBMC cells (HemaCare BioResearch) were thawed and centrifuged at 1,200 rpm for 4 minutes. The cells were diluted to a cell density of 2×10^6 cells/mL in assay medium. Fifty microliters of the diluted cells were added to the wells of the plate. The plate was centrifuged for 1 min at 500 rpm and incubated for 18-24 hours at 37° C./5% CO2.
After 18-24 hours incubation, 2 μL of 6.25 μg human FC block (BD Pharmingen) that was diluted in assay medium was added to the wells of the plate. The plate was centrifuged for 1 minute at 500 rpm and then incubated at room temperature for 15 minutes. Five microliters of 750 nM Helix NP NIR (Biolegend) that had been diluted in assay medium was added to the wells of the plate. Nine microliters of antibody cocktail containing 1/5 diluted fluorescein isothiocyanate (FITC) labeled anti-CD45 antibody (Beckman Coulter), PC7 labeled anti-CD14 antibody (Beckman Coulter) and phycoerythrin (PE) anti-CD4 antibody (Beckman Coulter) was then added to the wells of the plate. The plate was centrifuged for 1 min at 500 rpm and incubated for 30 minutes at 4-8° C. Samples from the plate were run on BD FACS Canto II flow cytometer and data was analyzed using FlowJo software.
ARMs compounds of Formula (I) of the invention were tested for the ability to deplete monocytes in the above assay in one or more experimental runs and the results are shown in Table 3 below. Potency of the compounds of the invention is reported as a pEC50 value. The pEC50 value is the negative log of the EC50 value, wherein the EC50 value is the half maximal effective concentration measured in molar (M). For compounds tested in more than one experimental run, the pEC50 value is reported as an average or as the individual values measured

[2] = molecular target: human alpha1 nicotinic acetylcholine (nACh) receptor (Homo sapiens, UniProt P02708+Q07001); assay: Nicotinic acetylcholine receptor antagonism assay, IONFlux automated patch clamp (Example 203); format: cell-based; details: for Emax at 10 µM: maximum percentage antagonism at maximum concentration tested 10 μM; for Emax at 10 µM / Emax at 100 µM: read-out: Maximum Response (%); for IC50: nAChR antagonism, ACh stimulated, patch clamp; for Emax at 100 µM: maximum percentage antagonism at maximum concentration tested 100 μM
Procedure, shortened: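 Human α1 nAChR-expressing cells were preincubated with compound (top 10 μM or 100 μM), then stimulated with 10 mM ACh; peak currents were recorded by IONFlux automated patch clamp. Percent inhibition versus ACh-alone control was vehicle- and rundown-corrected, then fitted to give IC50, with maximal antagonism at the top concentration; recordings with control current <500 pA were excluded.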

[3] = molecular target: T1, CHOK1 cells engineered to overexpress human CCR2 (Homo sapiens, UniProt P41597); assay: Antibody dependent cellular cytotoxicity (ADCC) reporter assay (Example 199); format: cell-based; details: with anti-cotinine antibody SEQ ID NO: 11/12; CHOK1-human CCR2 target cells, Jurkat FcγRIIIa NFAT-luciferase reporter cells; 12-18 hours; read-out: ADCC Reporter Assay pEC50 (converted)
T1 construct: expressed in transfected cells; host or cells: CHOK1 cells
Procedure, shortened: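 CHOK1-hCCR2 target cells are co-incubated for 12–18 h with Jurkat FcγRIIIa/NFAT-luciferase reporter cells, ARM compound (1 pM–10 μM) and anti-cotinine antibody with a DE-mutant human IgG1 Fc (0.01–200 μg/mL). Luminescence is expressed as signal:background against no-compound wells; EC50 comes from nonlinear fit and is reported as pEC50, averaged across runs.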

[4] = molecular target: Anti-cotinine antibody (SEQ ID NO: 11 / SEQ ID NO: 12, rabbit variable region with human IgG1 Fc domain); assay: Binding of anti-cotinine antibody to ARM compounds by SPR, Biacore T200, 37° C. (Example 202); details: pH 7.4, rabbit variable region/human IgG1 Fc antibody captured on protein A
Procedure, shortened: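 Antibody captured on protein A chip. Compounds injected (3-fold, 5-point, top 200 nM) at 100 μL/min with 200 s association and 2000 s dissociation, at 37° C. in HEPES pH 7.4 buffer with 1% DMSO. Double-referenced data fit to 1:1 kinetics. Kd = koff/kon, reported as pKd, averaged over runs.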

Chain of human alpha1 nicotinic acetylcholine (nACh) receptor (P02708 21-457): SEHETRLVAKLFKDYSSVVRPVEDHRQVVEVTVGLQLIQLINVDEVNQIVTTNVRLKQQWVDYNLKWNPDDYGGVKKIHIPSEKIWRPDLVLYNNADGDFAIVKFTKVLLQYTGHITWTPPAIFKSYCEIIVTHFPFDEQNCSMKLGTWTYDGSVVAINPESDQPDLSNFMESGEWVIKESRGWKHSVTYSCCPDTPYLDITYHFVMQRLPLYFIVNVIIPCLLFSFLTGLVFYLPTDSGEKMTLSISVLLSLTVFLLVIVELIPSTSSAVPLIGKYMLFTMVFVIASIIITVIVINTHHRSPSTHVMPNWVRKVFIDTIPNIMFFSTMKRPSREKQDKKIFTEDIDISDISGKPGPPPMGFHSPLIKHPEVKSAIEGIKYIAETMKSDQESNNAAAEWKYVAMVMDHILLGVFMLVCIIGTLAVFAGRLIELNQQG
Chain of human alpha1 nicotinic acetylcholine (nACh) receptor (P11230 24-501 partner): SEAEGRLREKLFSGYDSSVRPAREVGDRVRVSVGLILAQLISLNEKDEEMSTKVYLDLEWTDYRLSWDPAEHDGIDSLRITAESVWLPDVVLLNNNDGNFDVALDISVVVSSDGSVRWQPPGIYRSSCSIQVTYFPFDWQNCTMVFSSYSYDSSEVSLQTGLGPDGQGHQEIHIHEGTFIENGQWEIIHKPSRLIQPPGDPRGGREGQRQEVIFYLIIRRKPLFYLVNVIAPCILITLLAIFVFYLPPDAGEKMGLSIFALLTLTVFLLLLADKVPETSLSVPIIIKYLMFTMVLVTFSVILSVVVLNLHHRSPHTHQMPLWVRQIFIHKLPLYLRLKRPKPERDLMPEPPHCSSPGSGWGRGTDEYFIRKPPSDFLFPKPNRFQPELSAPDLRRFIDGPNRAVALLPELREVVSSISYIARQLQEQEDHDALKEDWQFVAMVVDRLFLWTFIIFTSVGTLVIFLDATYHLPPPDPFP
Chain of human alpha1 nicotinic acetylcholine (nACh) receptor (Q07001 22-517): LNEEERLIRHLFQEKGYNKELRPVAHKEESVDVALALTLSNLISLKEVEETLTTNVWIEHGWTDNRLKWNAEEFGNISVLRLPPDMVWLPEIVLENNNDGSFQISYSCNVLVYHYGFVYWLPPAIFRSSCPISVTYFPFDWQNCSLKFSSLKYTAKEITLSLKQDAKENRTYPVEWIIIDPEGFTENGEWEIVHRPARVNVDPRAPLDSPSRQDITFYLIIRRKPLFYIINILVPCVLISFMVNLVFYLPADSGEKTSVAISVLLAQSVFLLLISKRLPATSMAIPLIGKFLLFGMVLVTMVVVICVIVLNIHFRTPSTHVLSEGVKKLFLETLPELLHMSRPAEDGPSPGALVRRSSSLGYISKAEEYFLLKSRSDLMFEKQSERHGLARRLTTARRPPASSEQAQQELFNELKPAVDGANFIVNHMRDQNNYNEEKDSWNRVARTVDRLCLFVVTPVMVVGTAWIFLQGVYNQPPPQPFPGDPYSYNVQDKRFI

Structure (SMILES)	EC50 [1] [nM]	Emax at 10 µM [2] [%]	IC50 [2] [nM]	EC50 [3]	pKd of Antibody for ARM Compound of Formula (I) [4]	Emax at 100 µM [2] [%]
CC(C)N(C)[C@@H]1CC[C@H](N2CC[C@H](Nc3ncnc4ccc(C(F)(F)F)cc34)C2=O)[C@H](NC(=O)C2CCC(N3CCC(S(=O)(=O)NCCCCCCNC(=O)[C@H]4CC(=O)N(C)[C@@H]4c4cccnc4)CC3)CC2)C1 (single isomer, unassigned) [compound 149]	0.251					
CC(C)N(C)[C@@H]1CC[C@H](N2CC[C@H](Nc3ncnc4ccc(C(F)(F)F)cc34)C2=O)[C@H](NC(=O)CCOCCNC(=O)[C@H]2CC[C@@H](NC(=O)COCCNC(=O)[C@H]3CC(=O)N(C)[C@@H]3c3cccnc3)CC2)C1 [Example 107, (2S,3S)-N-(2-(2-(((1S,4R)-4-((2-(3-(((1R,2S,5R)-5-(Isopropyl(methyl)amino)-2-((S)-2-oxo-3-((6-(trifluoromethyl)quinazolin-4-yl)amino)pyrrolidin-1-yl)cyclohexyl)amino)-3-oxopropoxy)ethyl)carbamoyl)cyclohexyl)amino)-2-oxoethoxy)ethyl)-1-methyl-5-oxo-2-(pyridin-3-yl)pyrrolidine-3-carboxamide]		12.2	> 10000	0.158 nM	9.161	
CC(C)N(C)[C@@H]1CC[C@H](N2CC[C@H](Nc3ncnc4ccc(C(F)(F)F)cc34)C2=O)[C@H](NC(=O)COCCNC(=O)COCCNC(=O)COCCNC(=O)[C@H]2CC(=O)N(C)[C@@H]2c2cccnc2)C1 [Example 111, (2S,3S)-N-(17-(((1R,2S,5R)-5-(Isopropyl(methyl)amino)-2-((S)-2-oxo-3-((6-(trifluoromethyl)quinazolin-4-yl)amino)pyrrolidin-1-yl)cyclohexyl)amino)-5,11,17-trioxo-3,9,15-trioxa-6,12-diazaheptadecyl)-1-methyl-5-oxo-2-(pyridin-3-yl)pyrrolidine-3-carboxamide]			52900	6.31 nM	9.0855	67.6
CC(C)N(C)[C@@H]1CC[C@H](N2CC[C@H](Nc3ncnc4ccc(C(F)(F)F)cc34)C2=O)[C@H](NC(=O)CNC(=O)[C@H]2CC[C@@H](NC(=O)CCOCCOCCNC(=O)[C@H]3CC(=O)N(C)[C@@H]3c3cccnc3)CC2)C1 [Example 137, (2S,3S)-N-(2-(2-(3-(((1S,4s)-4-((2-(((1R,2S,5R)-5-(Isopropyl(methyl)amino)-2-((S)-2-oxo-3-((6-(trifluoromethyl)quinazolin-4-yl)amino)pyrrolidin-1-yl)cyclohexyl)amino)-2-oxoethyl)carbamoyl)cyclohexyl)amino)-3-oxopropoxy)ethoxy)ethyl)-1-methyl-5-oxo-2-(pyridin-3-yl)pyrrpolidine-3-carboxamide]			70000	1.67 nM	9.336	62
CC(C)N(C)[C@@H]1CC[C@H](N2CC[C@H](Nc3ncnc4ccc(C(F)(F)F)cc34)C2=O)[C@H](NC(=O)[C@H]2CC[C@@H](NC(=O)CCOCCNC(=O)CCNC(=O)CCNC(=O)[C@H]3CC(=O)N(C)[C@@H]3c3cccnc3)CC2)C1 [Example 182, (2S,3S)-N-(3-((3-((2-(3-(((1S,4s)-4-(((1R,2S,5R)-5-(Isopropyl(methyl)amino)-2-((S)-2-oxo-3-((6-(trifluoromethyl)quinazolin-4-yl)amino)pyrrolidin-1-yl)cyclohexyl)carbamoyl)cyclohexyl)amino)-3-oxopropoxy)ethyl)amino)-3-oxopropyl)amino)-3-oxopropyl)-1-methyl-5-oxo-2-(pyridin-3-yl)pyrrolidine-3-carboxamide]			76400	0.514 nM and 0.191 nM	9.117	61.9
CC(C)N(C)[C@@H]1CC[C@H](N2CC[C@H](Nc3ncnc4ccc(C(F)(F)F)cc34)C2=O)[C@H](NC(=O)CCOCCC(=O)N[C@H]2C[C@@H](C(=O)NCCOCCNC(=O)[C@H]3CC(=O)N(C)[C@@H]3c3cccnc3)C2)C1 [Example 186, (2S,3S)-N-(2-(2-((1S,3R)-3-(3-(3-(((1R,2S,5R)-5-(Isopropyl(methyl)amino)-2-((S)-2-oxo-3-((6-(trifluoromethyl)quinazolin-4-yl)amino)pyrrolidin-1-yl)cyclohexyl)amino)-3-oxopropoxy)propanamido)cyclobutane-1-carboxamido)ethoxy)ethyl)-1-methyl-5-oxo-2-(pyridin-3-yl)pyrrolidine-3-carboxamide]			31800	0.151 nM	9.1435	55.2
CC(C)N(C)[C@@H]1CC[C@H](N2CC[C@H](Nc3ncnc4ccc(C(F)(F)F)cc34)C2=O)[C@H](NC(=O)CCOCCC(=O)N[C@H]2C[C@H](C(=O)NCCOCCNC(=O)[C@H]3CC(=O)N(C)[C@@H]3c3cccnc3)C2)C1 [Example 187]			71100	0.324 nM	9.104	63.7
CC(C)N(C)[C@@H]1CC[C@H](N2CC[C@H](Nc3ncnc4ccc(C(F)(F)F)cc34)C2=O)[C@H](NC(=O)CCCN2CCC3(CCN(CCCNC(=O)[C@H]4CC(=O)N(C)[C@@H]4c4cccnc4)CC3)CC2)C1 [Example 191, (2S,3S)-N-(3-(9-(4-(((1R,2S,5R)-5-(Isopropyl(methyl)amino)-2-((S)-2-oxo-3-((6-(trifluoromethyl)quinazolin-4-yl)amino)pyrrolidin-1-yl)cyclohexyl)amino)-4-oxobutyl)-3,9-diazaspiro[5.5]undecan-3-yl)propyl)-1-methyl-5-oxo-2-(pyridin-3-yl)pyrrolidine-3-carboxamide]		74	2950	0.424 nM	9.68	
CC(C)N(C)[C@@H]1CC[C@H](N2CC[C@H](Nc3ncnc4ccc(C(F)(F)F)cc34)C2=O)[C@H](NC(=O)[C@H]2CC[C@H](C(=O)NCCCOCCCCOCCCNC(=O)[C@H]3CC(=O)N(C)[C@@H]3c3cccnc3)CC2)C1 [Example 194, (1 r,4R)-N^1-((1R,2S,5R)-5-(Isopropyl(methyl)amino)-2-((S)-2-oxo-3-((6-(trifluoromethyl)quinazolin-4-yl)amino)pyrrolidin-1-yl)cyclohexyl)-N^4-(3-(4-(3-((2S,3S)-1-methyl-5-oxo-2-(pyridin-3-yl)pyrrolidine-3-carboxamido)propoxy)butoxy)propyl)cyclohexane-1,4-dicarboxamide]			> 100000	0.275 nM	9.5415	44.9
CC(C)N(C)[C@@H]1CC[C@H](N2CC[C@H](Nc3ncnc4ccc(C(F)(F)F)cc34)C2=O)[C@H](NC(=O)[C@H]2CC[C@H](C3CCN(C(=O)CCOCCOCCNC(=O)[C@H]4CC(=O)N(C)[C@@H]4c4cccnc4)CC3)CC2)C1 [compound 73]		4.1	> 10000	7.94 nM	9.8185	
